This is an account of results in ChEMBL document CHEMBL1144200, “Discovery and biological evaluation of benzo[a]carbazole-based small molecule agonists of the thrombopoietin (Tpo) receptor” (Bioorg Med Chem Lett, 2008).

One data set deals with T1, Thrombopoietin receptor (Homo sapiens, UniProt P40238).
T1 sequence (P40238 whole entry): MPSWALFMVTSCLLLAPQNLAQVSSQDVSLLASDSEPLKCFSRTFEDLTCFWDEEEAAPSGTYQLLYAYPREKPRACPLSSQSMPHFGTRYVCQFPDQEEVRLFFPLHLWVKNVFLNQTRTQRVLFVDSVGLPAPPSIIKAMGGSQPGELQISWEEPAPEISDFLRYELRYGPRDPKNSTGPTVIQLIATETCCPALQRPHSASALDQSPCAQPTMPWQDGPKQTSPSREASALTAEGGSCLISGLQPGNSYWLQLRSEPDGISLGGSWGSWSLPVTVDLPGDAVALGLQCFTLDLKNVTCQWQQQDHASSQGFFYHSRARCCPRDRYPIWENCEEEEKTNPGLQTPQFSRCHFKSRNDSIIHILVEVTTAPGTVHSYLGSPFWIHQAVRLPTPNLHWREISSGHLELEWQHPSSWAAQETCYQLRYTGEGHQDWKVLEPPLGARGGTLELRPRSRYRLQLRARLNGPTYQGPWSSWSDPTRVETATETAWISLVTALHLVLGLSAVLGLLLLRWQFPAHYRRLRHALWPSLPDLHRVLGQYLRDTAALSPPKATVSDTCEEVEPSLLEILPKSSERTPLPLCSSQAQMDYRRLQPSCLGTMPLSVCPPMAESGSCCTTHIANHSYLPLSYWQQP
Put plainly: Agonist activity at human thrombopoietin receptor in Ba/F3 cells assessed as activation of Stat5 response element-driven reporter gene expression. It counts as functional, cell-based, BaF3.

Data set [1] deals with T2, Thrombopoietin receptor (Homo sapiens) (UniProt P40238).
T2 sequence (whole entry): T1 sequence (P40238 whole entry)
Put plainly: Agonist activity at human thrombopoietin receptor in Ba/F3 cells assessed as activation of Stat5 response element-driven reporter gene expression relative to 30 ng/mL thrombopoietin. Type of data set: functional, cell-based. The conditions noted are these: BaF3. (In general: A reporter such as luciferase makes a cellular process visible.)

The nature of data set [2]: Bioavailability in BALB/c mouse at 20 mg/kg, po. The conditions noted are these: in vivo. Type of data set: ADME, organism-based.
The nature of data set [3]: Cmax in BALB/c mouse at 20 mg/kg, po. It counts as ADME, organism-based. Set-up: dose 20 mg/kg, route oral. The conditions noted are these: in vivo.
Data set [4] is described as follows: Half life in BALB/c mouse at 20 mg/kg, po. Type of data set: ADME, organism-based. Set-up: dose 20 mg/kg, route oral. The note with it: in vivo.

Take `CCCOc1ccc(-c2ccc3c4c([nH]c3c2)-c2cc(O)c(C(=O)O)cc2CC4)cc1`: on Thrombopoietin receptor, the EC50 turned out to be 41 nM. In addition, the Efficacy in data set [1] came to 129%.

For the molecule `N#Cc1ccc2[nH]c3c(c2c1)CCc1cc(C(=O)O)c(O)cc1-3`, the EC50 on Thrombopoietin receptor is greater than 30000 nM.

In the case of `O=C(O)c1cc2c(cc1O)-c1[nH]c3c(F)ccc(C(F)(F)F)c3c1CC2`, the concentration for a half-maximal effect (EC50) at Thrombopoietin receptor was determined as 799 nM. The Efficacy in data set [1] turned out to be 101%.

Turning to `O=C(O)c1cc2c(cc1O)-c1[nH]c3cc(-c4cccc(C(F)(F)F)c4)ccc3c1CC2`, the EC50 at Thrombopoietin receptor turned out to be 148 nM. Besides, the Efficacy in data set [1] worked out at 127%.

For `O=C(O)c1cc2c(cc1O)-c1[nH]c3ccc(C(F)(F)F)cc3c1CC2`, at Thrombopoietin receptor, the EC50 turned out to be 333 nM. Further, the Efficacy in data set [1] came out at 115%.

For the molecule `Cc1ccc2c(c1)[nH]c1c3cc(O)c(C(=O)O)cc3ccc21`, on Thrombopoietin receptor, the EC50 amounted to 870 nM. The Efficacy in data set [1] was 76%.

For the molecule `Cc1cccc(-c2ccc3c4c([nH]c3c2)-c2cc(O)c(C(=O)O)cc2CC4)c1`, the EC50 on Thrombopoietin receptor was 194 nM. Further, the Efficacy in data set [1] is 128%.

In the case of `CCCCc1ccc(-c2ccc3c4c([nH]c3c2)-c2ccc(C(N)=O)cc2CC4)cc1`, the EC50 on Thrombopoietin receptor was found to be 76 nM. Further, the Efficacy in data set [1] worked out at 111%.

`CCCCc1ccc(-c2ccc3c4c([nH]c3c2)-c2ccc(C(=O)O)cc2CC4)cc1`: the Efficacy in data set [1] was 141%.

Turning to `COC(=O)c1cc2ccc3c4ccccc4[nH]c3c2cc1O`, the EC50 at Thrombopoietin receptor was determined as 1300 nM. For the same molecule, the Efficacy in data set [1] stood at 11%.

In the case of `OCc1cc2ccc3c4ccccc4[nH]c3c2cc1O`, the EC50 on Thrombopoietin receptor was greater than 30000 nM.

In the case of `O=C(O)c1cc2c(cc1O)-c1[nH]c3cc(C4CCCCC4)ccc3c1CC2`, on Thrombopoietin receptor, the EC50 was greater than 30000 nM.

Consider `O=C(O)c1cc2c(cc1O)-c1[nH]c3cc(C(F)(F)F)ccc3c1CC2`, for which, at Thrombopoietin receptor, the EC50 was determined as 473 nM. Also, in data set [1], the Efficacy was 96%.

In the case of `O=C(O)c1cc2c(cc1O)-c1[nH]c3c(C(F)(F)F)cccc3c1CC2`, the EC50 on Thrombopoietin receptor is 7830 nM. The Efficacy in data set [1] worked out at 37%.

Regarding `Cc1ccc(-c2ccc3c4c([nH]c3c2)-c2cc(O)c(C(=O)O)cc2CC4)cc1`, the EC50 at Thrombopoietin receptor came to 109 nM. For the same molecule, in data set [1], the Efficacy amounted to 154%.

As for `CCCCc1ccc(-c2ccc3c4c([nH]c3c2F)-c2ccc(C(=O)O)cc2CC4)cc1`, the EC50 at Thrombopoietin receptor came to 55 nM. The Efficacy in data set [1] is 140%.

For the molecule `O=C(O)c1cc2ccc3c4ccc(C(F)(F)F)cc4[nH]c3c2cc1O`, the EC50 at Thrombopoietin receptor was 143 nM. Also, the Efficacy in data set [1] is 128%.

For `O=C(O)c1cc2ccc3c4ccccc4[nH]c3c2cc1O`, on Thrombopoietin receptor, the EC50 amounted to 3400 nM. The Efficacy in data set [1] came to 100%.

Regarding `CCCCc1ccc(-c2ccc3c4c([nH]c3c2)-c2cc(O)c(C(=O)O)cc2CC4)cc1`, the EC50 at Thrombopoietin receptor came out at 26 nM. Also, the Efficacy in data set [1] was determined as 143%.

As to `CCCCc1ccc(-c2ccc3c4c([nH]c3c2)-c2ccc(-c3nnn[nH]3)cc2CC4)cc1`, the EC50 at Thrombopoietin receptor came out at 119 nM. Moreover, in data set [1], the Efficacy came to 128%.

Take `O=C(O)c1cc2c(cc1O)-c1[nH]c3cccc(-c4ccccc4)c3c1CC2`: at Thrombopoietin receptor, the EC50 is greater than 30000 nM.

Turning to `Cc1cc(-c2ccc3c4c([nH]c3c2F)-c2ccc(C3=NCCN3)cc2CC4)ccc1F`, the EC50 at Thrombopoietin receptor was greater than 30000 nM.

As for `CCCOc1cccc(-c2ccc3c4c([nH]c3c2)-c2cc(O)c(C(=O)O)cc2CC4)c1`, the EC50 on Thrombopoietin receptor stood at 43 nM. Further, in data set [1], the Efficacy amounted to 147%.

Consider `Cc1ccc(-c2ccc3c4c([nH]c3c2)-c2cc(O)c(C(=O)O)cc2CC4)cc1C`, for which the EC50 on Thrombopoietin receptor came to 65 nM. Moreover, the Efficacy in data set [1] is 127%.

For `O=C(O)c1cc2c(cc1O)-c1[nH]c3cc(-c4ccccc4)ccc3c1CC2`, the EC50 on Thrombopoietin receptor came out at 373 nM. Further, in data set [1], the Efficacy came to 136%.

In the case of `CN(C)c1ccc(-c2ccc3c4c([nH]c3c2)-c2cc(O)c(C(=O)O)cc2CC4)cc1`, on Thrombopoietin receptor, the 50% effective concentration (EC50) was 284 nM. For the same molecule, the Efficacy in data set [1] amounted to 136%.

For the molecule `O=C(O)c1cc2c(cc1O)-c1[nH]c3ccc(-c4ccccc4)cc3c1CC2`, at Thrombopoietin receptor, the EC50 amounted to 569 nM. Moreover, the Efficacy in data set [1] came out at 68%.

With `COCc1ccc(-c2ccc3c4c([nH]c3c2)-c2cc(O)c(C(=O)O)cc2CC4)cc1`, the EC50 on Thrombopoietin receptor came to 452 nM. In addition, the Efficacy in data set [1] worked out at 132%.

Take `Cc1cc(C)cc(-c2ccc3c4c([nH]c3c2)-c2cc(O)c(C(=O)O)cc2CC4)c1`: the EC50 on Thrombopoietin receptor is 67 nM. The Efficacy in data set [1] worked out at 128%. In data set [2], this molecule displayed a bioavailability of 10%. In data set [3], this molecule had a Cmax of 2000 nM. The molecule further showed a half-life in data set [4] of 246 min.

For `Cc1cc(-c2ccc3c4c([nH]c3c2)-c2cc(O)c(C(=O)O)cc2CC4)ccc1F`, the EC50 at Thrombopoietin receptor stood at 35 nM. In addition, the Efficacy in data set [1] came to 126%.

Take `Cc1cccc(C)c1-c1ccc2c3c([nH]c2c1)-c1cc(O)c(C(=O)O)cc1CC3`: on Thrombopoietin receptor, the EC50 came to 232 nM. Besides, in data set [1], the Efficacy was 30%.

For the molecule `CCCCc1ccc(-c2ccc3c4c([nH]c3c2)-c2ccc(C(=O)N(C)C)cc2CC4)cc1`, the EC50 at Thrombopoietin receptor turned out to be 127 nM. For the same molecule, the Efficacy in data set [1] was determined as 132%.

With `O=C(O)c1ccc2c3c([nH]c2c1)-c1cc(O)c(C(=O)O)cc1CC3`, the EC50 at Thrombopoietin receptor worked out at 7790 nM. In addition, in data set [1], the Efficacy came to 74%.

Regarding `Cn1c2ccccc2c2ccc3cc(C(=O)O)c(O)cc3c21`, on Thrombopoietin receptor, the EC50 was greater than 30000 nM.

`Cc1ccc2c(c1)[nH]c1c3cc(O)c(CC(=O)O)cc3ccc21`: the EC50 at Thrombopoietin receptor is 9200 nM. The Efficacy in data set [1] is 70%.

In the case of `COc1cc2c(ccc3c4ccccc4[nH]c23)cc1C(=O)O`, on Thrombopoietin receptor, the EC50 is greater than 30000 nM.

What is called EC50 is the concentration needed to bring the measured effect to its halfway point. Broadly, the bioavailability is the share of a dose that reaches the circulation, judged against a reference dose that is usually intravenous. What is called Cmax is the maximum level reached in the sampled fluid or tissue. As a reminder, the half-life is how long it takes for the measured level to halve. Low values mean fast loss, high ones slow loss.
